Patent publication US12281122B1, “PI3K inhibitors” (Cogent Biosciences, Inc., priority 2023, dated 2025)

Legend:
[1] = tested on: SKBR3 (PI3Kα-Wild Type) cell line; test: HTRF phospho-AKT(S473) cell assay in SKBR3 cells; assay type: cell-based, human; details: Homo sapiens, SK-BR-3; SKBR3 (PI3Kα-Wild Type) cells, HTRF phospho-AKT(S473), 2 hours compound incubation, PDGF-BB stimulated
Outline: (§1)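 pAKT(S473) in lysates read by HTRF after a 2 h, 37 °C compound exposure (12-point 1:3 series, max 0.5% DMSO). SKBR3 (wild type, top 10 μM) received 70 ng/ml PDGF-BB during the final 15 min; T47D (H1047R, top 5 μM) was unstimulated. IC50 values derived from the dose-response.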

[2] = tested on: T47D (PI3Kα-H1047R) cell line; test: HTRF phospho-AKT(S473) cell assay in T47D cells; assay type: cell-based, human; details: Homo sapiens; T47D (PI3Kα-H1047R) cells, HTRF phospho-AKT(S473), 2 hours compound incubation
Outline: as §1

## Cc1cc([C@@H](C)Nc2ccc(Cl)nc2C(=O)NS(C)(=O)=O)c2nc(N3CCN(c4ccc(C#N)cc4)CC3)n(C)c(=O)c2c1 [Compound 190, (R)-6-chloro-3-((1-(2-(4-(4-cyanophenyl)piperazin-1-yl)-3,6-dimethyl-4-oxo-3,4-dihydroquinazolin-8-yl)ethyl)amino)-N-(methylsulfonyl) picolinamide]
[1]
  IC50: 1000 to 5000 nM
[2]
  IC50: < 250 nM

## Cc1cc([C@@H](C)Nc2ccc(Cl)nc2C(=O)NS(C)(=O)=O)c2nc(N3Cc4cnn(-c5ccccc5C)c4C3)n(C)c(=O)c2c1 [Compound 191, (R)-6-chloro-3-((1-(3,6-dimethyl-4-oxo-2-(1-(o-tolyl)-4,6-dihydropyrrolo[3,4-c]pyrazol-5(1H)-yl)-3,4-dihydroquinazolin-8-yl)ethyl)amino)-N-(methylsulfonyl) picolinamide]
[1]
  IC50: ≥ 5000 nM
[2]
  IC50: < 250 nM

## Cc1cc([C@@H](C)Nc2ccc(Cl)nc2C(=O)NS(C)(=O)=O)c2nc(N3Cc4cn(-c5ccncc5)nc4C3)n(C)c(=O)c2c1 [Compound 192, (R)-6-chloro-3-((1-(3,6-dimethyl-4-oxo-2-(2-(pyridin-4-yl)-2,6-dihydropyrrolo[3,4-c]pyrazol-5(4H)-yl)-3,4-dihydroquinazolin-8-yl)ethyl)amino)-N-(methylsulfonyl) picolinamide]
[1]
  IC50: 1000 to 5000 nM
[2]
  IC50: < 250 nM

## Cc1cc([C@@H](C)Nc2ccc(Cl)nc2C(=O)NS(C)(=O)=O)c2nc(N3CCN(c4cnn(CC(F)(F)F)c4)CC3)n(C)c(=O)c2c1 [Compound 193, (R)-6-chloro-3-((1-(3,6-dimethyl-4-oxo-2-(4-(1-(2,2,2-trifluoroethyl)-1H-pyrazol-4-yl)piperazin-1-yl)-3,4-dihydroquinazolin-8-yl)ethyl)amino)-N-(methylsulfonyl) picolinamide]
[1]
  IC50: 1000 to 5000 nM
[2]
  IC50: < 250 nM

## Cc1cc([C@@H](C)Nc2ccc(Cl)nc2C(=O)NS(C)(=O)=O)c2nc(N3CCc4c(cnn4-c4ccccc4)C3)n(C)c(=O)c2c1 [Compound 195, (R)-6-chloro-3-((1-(3,6-dimethyl-4-oxo-2-(1-phenyl-1,4,6,7-tetrahydro-5H-pyrazolo[4,3-c]pyridin-5-yl)-3,4-dihydroquinazolin-8-yl)ethyl)amino)-N-(methylsulfonyl) picolinamide]
[1]
  IC50: 1000 to 5000 nM
[2]
  IC50: < 250 nM

## Cc1cc([C@@H](C)Nc2ccc(Cl)nc2C(=O)NS(C)(=O)=O)c2nc(N3CCN(c4ccc(C#N)cn4)[C@@H](C)C3)n(C)c(=O)c2c1 [Compound 196, 6-chloro-3-(((R)-1-(2-((S)-4-(5-cyanopyridin-2-yl)-3-methylpiperazin-1-yl)-3,6-dimethyl-4-oxo-3,4-dihydroquinazolin-8-yl)ethyl)amino)-N-(methylsulfonyl) picolinamide]
[1]
  IC50: 1000 to 5000 nM
[2]
  IC50: < 250 nM

## Cc1cc([C@@H](C)Nc2ccc(Cl)nc2C(=O)NS(C)(=O)=O)c2nc(N3CCC(n4cc(C)cn4)CC3)n(C)c(=O)c2c1 [Compound 197, (R)-6-chloro-3-((1-(3,6-dimethyl-2-(4-(4-methyl-1H-pyrazol-1-yl)piperidin-1-yl)-4-oxo-3,4-dihydroquinazolin-8-yl)ethyl)amino)-N-(methylsulfonyl) picolinamide]
[1]
  IC50: 1000 to 5000 nM
[2]
  IC50: < 250 nM

## Cc1cc([C@@H](C)Nc2ccc(Cl)nc2C(=O)NS(C)(=O)=O)c2nc(N3CCC(n4cc5ccccc5n4)CC3)n(C)c(=O)c2c1 [Compound 198, (R)-3-((1-(2-(4-(2H-indazol-2-yl)piperidin-1-yl)-3,6-dimethyl-4-oxo-3,4-dihydroquinazolin-8-yl)ethyl)amino)-6-chloro-N-(methylsulfonyl) picolinamide]
[1]
  IC50: 1000 to 5000 nM
[2]
  IC50: < 250 nM

## Cc1cc([C@@H](C)Nc2ccc(Cl)nc2C(=O)NS(C)(=O)=O)c2nc(N3CCC(n4cccn4)CC3)n(C)c(=O)c2c1 [Compound 199, (R)-3-((1-(2-(4-(1H-pyrazol-1-yl)piperidin-1-yl)-3,6-dimethyl-4-oxo-3,4-dihydroquinazolin-8-yl)ethyl)amino)-6-chloro-N-(methylsulfonyl) picolinamide]
[1]
  IC50: 1000 to 5000 nM
[2]
  IC50: < 250 nM

## Cc1cc([C@@H](C)Nc2ccc(Cl)nc2C(=O)NS(C)(=O)=O)c2nc(N3CCN(c4ccc(C#N)cn4)[C@H](C)C3)n(C)c(=O)c2c1 [Compound 200, 6-chloro-3-(((R)-1-(2-((R)-4-(5-cyanopyridin-2-yl)-3-methylpiperazin-1-yl)-3,6-dimethyl-4-oxo-3,4-dihydroquinazolin-8-yl)ethyl)amino)-N-(methylsulfonyl) picolinamide]
[1]
  IC50: 1000 to 5000 nM
[2]
  IC50: < 250 nM

## Cc1cc([C@@H](C)Nc2ccc(Cl)nc2C(=O)NS(C)(=O)=O)c2nc(N3C[C@@H]4C[C@H]3CN4c3cnn(C)c3)n(C)c(=O)c2c1 [Compound 201, 6-chloro-3-(((R)-1-(3,6-dimethyl-2-((1S,4S)-5-(1-methyl-1H-pyrazol-4-yl)-2,5-diazabicyclo[2.2.1]heptan-2-yl)-4-oxo-3,4-dihydroquinazolin-8-yl)ethyl)amino)-N-(methylsulfonyl) picolinamide]
[1]
  IC50: 1000 to 5000 nM
[2]
  IC50: < 250 nM

## Cc1cc([C@@H](C)Nc2ccc(Cl)nc2C(=O)NS(C)(=O)=O)c2nc(N3CC[C@@H](Oc4ccc(F)cc4)C3)n(C)c(=O)c2c1 [Compound 203, 6-chloro-3-(((R)-1-(2-((R)-3-(4-fluorophenoxy)pyrrolidin-1-yl)-3,6-dimethyl-4-oxo-3,4-dihydroquinazolin-8-yl)ethyl)amino)-N-(methylsulfonyl) picolinamide]
[1]
  IC50: 1000 to 5000 nM
[2]
  IC50: < 250 nM

## Cc1cc([C@@H](C)Nc2ccc(Cl)nc2C(=O)NS(C)(=O)=O)c2nc(N3CCN(c4cc[nH]n4)CC3)n(C)c(=O)c2c1 [Compound 204, (R)-3-((1-(2-(4-(1H-pyrazol-3-yl)piperazin-1-yl)-3,6-dimethyl-4-oxo-3,4-dihydroquinazolin-8-yl)ethyl)amino)-6-chloro-N-(methylsulfonyl) picolinamide]
[1]
  IC50: 1000 to 5000 nM
[2]
  IC50: < 250 nM

## Cc1cc([C@@H](C)Nc2ccc(Cl)nc2C(=O)NS(C)(=O)=O)c2nc(N3CCN(c4ccc(CC#N)cn4)CC3)n(C)c(=O)c2c1 [Compound 206, (R)-6-chloro-3-((1-(2-(4-(5-(cyanomethyl)pyridin-2-yl)piperazin-1-yl)-3,6-dimethyl-4-oxo-3,4-dihydroquinazolin-8-yl)ethyl)amino)-N-(methylsulfonyl) picolinamide]
[1]
  IC50: 1000 to 5000 nM
[2]
  IC50: < 250 nM

## Cc1cc([C@@H](C)Nc2ccc(Cl)nc2C(=O)NS(C)(=O)=O)c2nc(N3CCC[C@H](C#N)C3)n(C)c(=O)c2c1 [Compound 209, 6-chloro-3-(((R)-1-(2-((S)-3-cyanopiperidin-1-yl)-3,6-dimethyl-4-oxo-3,4-dihydroquinazolin-8-yl)ethyl)amino)-N-(methylsulfonyl) picolinamide]
[1]
  IC50: 1000 to 5000 nM
[2]
  IC50: < 250 nM

## Cc1cc([C@@H](C)Nc2ccc(Cl)nc2C(=O)NS(C)(=O)=O)c2nc(N3Cc4cn(C(F)(F)F)nc4C3)n(C)c(=O)c2c1 [Compound 210, (R)-6-chloro-3-((1-(3,6-dimethyl-4-oxo-2-(2-(trifluoromethyl)-2,6-dihydropyrrolo[3,4-c]pyrazol-5(4H)-yl)-3,4-dihydroquinazolin-8-yl)ethyl)amino)-N-(methylsulfonyl) picolinamide]
[1]
  IC50: 1000 to 5000 nM
[2]
  IC50: < 250 nM

## Cc1cc([C@@H](C)Nc2ccc(Cl)nc2C(=O)NS(C)(=O)=O)c2nc(N3CCc4cn(CC(F)(F)F)nc4C3)n(C)c(=O)c2c1 [Compound 214, (R)-6-chloro-3-((1-(3,6-dimethyl-4-oxo-2-(2-(2,2,2-trifluoroethyl)-2,4,5,7-tetrahydro-6H-pyrazolo[3,4-c]pyridin-6-yl)-3,4-dihydroquinazolin-8-yl)ethyl)amino)-N-(methylsulfonyl) picolinamide]
[1]
  IC50: 1000 to 5000 nM
[2]
  IC50: < 250 nM

## Cc1cc([C@@H](C)Nc2ccc(Cl)nc2C(=O)NS(C)(=O)=O)c2nc(N3Cc4cn(CC(C)(C)O)nc4C3)n(C)c(=O)c2c1 [Compound 216, (R)-6-chloro-3-((1-(2-(2-(2-hydroxy-2-methylpropyl)-2,6-dihydropyrrolo[3,4-c]pyrazol-5(4H)-yl)-3,6-dimethyl-4-oxo-3,4-dihydroquinazolin-8-yl)ethyl)amino)-N-(methylsulfonyl) picolinamide]
[1]
  IC50: 1000 to 5000 nM
[2]
  IC50: < 250 nM

## Cc1cc([C@@H](C)Nc2ccc(Cl)nc2C(=O)NS(C)(=O)=O)c2nc(N3Cc4cn(-c5ccc(C)nc5)nc4C3)n(C)c(=O)c2c1 [Compound 217, (R)-6-chloro-3-((1-(3,6-dimethyl-2-(2-(6-methylpyridin-3-yl)-2,6-dihydropyrrolo[3,4-c]pyrazol-5(4H)-yl)-4-oxo-3,4-dihydroquinazolin-8-yl)ethyl)amino)-N-(methylsulfonyl) picolinamide]
[1]
  IC50: 1000 to 5000 nM
[2]
  IC50: < 250 nM

## Cc1cc([C@@H](C)Nc2ccc(Cl)nc2C(=O)NS(C)(=O)=O)c2nc(N3Cc4cn(-c5ccc(C#N)cn5)nc4C3)n(C)c(=O)c2c1 [Compound 219, (R)-6-chloro-3-((1-(2-(2-(5-cyanopyridin-2-yl)-2,6-dihydropyrrolo[3,4-c]pyrazol-5(4H)-yl)-3,6-dimethyl-4-oxo-3,4-dihydroquinazolin-8-yl)ethyl)amino)-N-(methylsulfonyl) picolinamide]
[1]
  IC50: 1000 to 5000 nM
[2]
  IC50: < 250 nM

## Cc1cc([C@@H](C)Nc2ccc(Cl)nc2C(=O)NS(C)(=O)=O)c2nc(N3CCc4nn(CC(F)(F)F)cc4C3)n(C)c(=O)c2c1 [Compound 220, (R)-6-chloro-3-((1-(3,6-dimethyl-4-oxo-2-(2-(2,2,2-trifluoroethyl)-2,4,6,7-tetrahydro-5H-pyrazolo[4,3-c]pyridin-5-yl)-3,4-dihydroquinazolin-8-yl)ethyl)amino)-N-(methylsulfonyl) picolinamide]
[1]
  IC50: 1000 to 5000 nM
[2]
  IC50: < 250 nM
